What was measured:
[1] = target: T1, human muscarinic acetylcholine M3 receptor (M3-ACh) (Homo sapiens, UniProt P20309); test: Muscarinic 3 Receptor Binding Assay, % inhibition specific binding at 1 μM; settings: 1 μM compound, % inhibition specific [3H]-NMS binding
T1 construct: expressed in transfected cells; host or cells: CHO-K1 (Chinese Hamster Ovary) cell membranes
Procedure: The following experimental procedure was used to determine the M3% inhibition at 1 μM of the compounds of Examples 116-263.
Muscarinic 3 Receptor Binding Assay
The activity (% inhibition specific binding) of compounds -on the M3 receptor is determined by competition binding of [^3H]N-methyl scopolamine (NMS) to CHO-K1 (Chinese Hamster Ovary) cell membranes expressing the human muscarinic acetylcholine M3 receptor (M3-ACh) in a scintillation proximity assay (SPA) format.
SPA beads are precoated with membranes and then incubated at 2 mg of beads per well with 1 μM compound of the invention, [^3H]NMS at 0.1 nM, quarter Kd (experimentally determined dissociation constant) and assay buffer (20 mM HEPES pH 7.4 containing 5 mM MgCl2). The assay is conducted in a final volume of 200 μL, in the presence of 1% (v/v) dimethyl sulphoxide (DMSO). Total binding of [^3H]NMS is determined in the absence of competing compound and non-specific binding of [^3H]NMS is determined in the presence of 1 μM atropine. The plates are incubated for 16 hours at room temperature and then read on Wallac Microbeta™ using a normalised ^3H protocol. The compound activity at 1 defined as % inhibition specific [^3H]-NMS binding, is determined.

[2] = target: T2, Adrenergic β2 (H292 cells) (Homo sapiens, UniProt P07550); test: Adrenergic β2 Mediated cAMP Production, single concentration 1 μM; assay type: cell-based; settings: NCI-H292, 1 μM compound, percentage of the maximum response generated by 1E-07M formoterol, read-out: β2 (% effect at 1 μM)
T2 construct: endogenous in cells; host or cells: H292 cells
Procedure: The following experimental procedure was used to measure the beta-2% effect at 1 μM for the compounds of Examples 116-263. Adrenergic β2 Mediated cAMP Production Cell Preparation
H292 cells are grown in 225 cm2 flasks incubator at 37° C., 5% CO2 in RPMI medium containing 10% (v/v) FBS (foetal bovine serum) and 2 mM L-glutamine.
Compounds were prepared by an initial first dilution into DMSO to give 1 mM stock concentration. This was followed by a 1 in 10 dilution of the stock concentration (10 μl stock compound+90 μl DMSO) to give 0.1 mM compound.
A compound addition plate was prepared by making a further 1 in 25 dilution in assay buffer (HBSS solution containing 10 mM HEPES pH7.4 and 5 mM glucose) containing 4% dimethylsulfoxide. The final compound concentration in assay is 1 μM.
Adherent H292 cells are removed from tissue culture flasks by treatment with Accutase™ cell detachment solution for 15 minutes. Flasks are incubated for 15 minutes in a humidified incubator at 37° C., 5% CO2. Detached cells are re-suspended in RPMI media (containing 10% (v/v) FBS and 2 mM L-glutamine) at 0.1×10^6 cells per mL. 10000 cells in 100 μL are added to each well of a tissue-culture-treated 96-well plate and the cells incubated overnight in a humidified incubator at 37° C., 5% CO2. The culture media is removed and cells are washed twice with 100 μL assay buffer and replaced with 50 μL assay buffer (HBSS solution containing 10 mM HEPES pH7.4 and 5 mM glucose). Cells are rested at room temperature for 20 minutes after which time 25 μL of rolipram (1.2 mM made up in assay buffer) is added. Cells are incubated with rolipram for 10 minutes after which time 25 μl test compounds are added and the cells are incubated for 60 minutes at room temperature. The final rolipram concentration in the assay is 300 μM and final vehicle concentration is 1% (v/v) dimethylsulphoxide. The reaction is stopped by removing supernatants, washing once with 100 μL assay buffer and replacing with 50 μL lysis buffer. The cell monolayer is frozen at −80° C. for 30 minutes (or overnight).
AlphaScreen™ cAMP Detection
The concentration of cAMP (cyclic adenosine monophosphate) in the cell lysate is determined using AlphaScreen™ methodology. The frozen cell plate is thawed for 20 minutes on a plate shaker then 10 μL of the cell lysate is transferred to a 96-well white plate. 40 μL of mixed AlphaScreen™ detection beads (containing equal volumes of donor beads (pre-incubated with biotinylated cAMP in the dark for 30 minutes) and acceptor beads is added to each well and the plate incubated at room temperature for 3 hours in the dark. The AlphaScreen™ signal is measured using an EnVision spectrophotometer (Perkin-Elmer Inc.) with the recommended manufacturer's settings. Concentration of cAMP produced per well were calculated with reference to the cAMP standard curve determined in the same experiment and expressed as a percentage of the maximum response generated by 1E-07M formoterol.

T1 sequence (P20309 whole entry): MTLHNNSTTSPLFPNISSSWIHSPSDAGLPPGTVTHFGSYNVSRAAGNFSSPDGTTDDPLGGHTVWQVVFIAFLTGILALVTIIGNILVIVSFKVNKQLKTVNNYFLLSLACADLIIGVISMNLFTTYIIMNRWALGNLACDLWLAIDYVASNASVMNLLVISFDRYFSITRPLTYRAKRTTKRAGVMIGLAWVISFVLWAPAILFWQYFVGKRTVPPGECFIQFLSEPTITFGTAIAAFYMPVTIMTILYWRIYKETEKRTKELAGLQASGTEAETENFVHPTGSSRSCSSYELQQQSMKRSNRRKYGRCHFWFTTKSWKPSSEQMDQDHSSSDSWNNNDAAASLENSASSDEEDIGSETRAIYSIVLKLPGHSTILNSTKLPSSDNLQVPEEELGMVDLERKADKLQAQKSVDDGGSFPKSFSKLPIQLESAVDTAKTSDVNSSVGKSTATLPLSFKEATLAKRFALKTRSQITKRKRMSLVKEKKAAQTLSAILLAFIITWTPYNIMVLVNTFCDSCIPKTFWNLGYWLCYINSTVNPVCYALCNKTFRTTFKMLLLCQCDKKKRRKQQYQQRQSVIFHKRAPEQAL
T2 sequence (P07550 whole entry): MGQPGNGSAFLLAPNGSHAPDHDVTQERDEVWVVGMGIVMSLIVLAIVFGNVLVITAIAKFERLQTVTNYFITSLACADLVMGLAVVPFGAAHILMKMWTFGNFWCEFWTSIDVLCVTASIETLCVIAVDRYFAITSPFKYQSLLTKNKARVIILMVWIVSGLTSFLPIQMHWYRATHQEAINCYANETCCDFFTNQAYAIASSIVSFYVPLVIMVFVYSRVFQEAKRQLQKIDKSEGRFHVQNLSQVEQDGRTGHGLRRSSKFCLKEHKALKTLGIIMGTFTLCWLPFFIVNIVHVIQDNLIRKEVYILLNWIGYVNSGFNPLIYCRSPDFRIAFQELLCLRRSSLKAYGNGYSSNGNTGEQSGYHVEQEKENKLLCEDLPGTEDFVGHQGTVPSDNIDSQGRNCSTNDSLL

Row | inhibition at 1 µM [1] [%] | activation at 1 µM [2] [%] | SMILES
1 | 3 | 94 | O=C(c1cnc(-c2ccccc2)[nH]1)N1CCOC2(CCN(Cc3cc(F)cc(CCNC[C@H](O)c4ccc(O)c5[nH]c(=O)sc45)c3)CC2)C1 [Example 175, (R)-7-(2-(3-fluoro-5-((4-(2-phenyl-1H-imidazole-5-carbonyl)-1-oxa-4,9-diazaspiro[5.5]undecan-9-yl)methyl)phenethylamino)-1-hydroxyethyl)-4-hydroxybenzo[d]thiazol-2(3H)-one]
2 | 8 | 91 | Cc1nc2cc(C(=O)N3CCOC4(CCN(Cc5cc(F)cc(CCNC[C@H](O)c6ccc(O)c7[nH]c(=O)sc67)c5)CC4)C3)ccc2n1C [Example 162, (R)-7-(2-(3-((4-(1,2-dimethyl-1H-benzo[d]imidazole-5-carbonyl)-1-oxa-4,9-diazaspiro[5.5]undecan-9-yl)methyl)-5-fluorophenethylamino)-1-hydroxyethyl)-4-hydroxybenzo[d]thiazol-2(3H)-one]
3 | 14 | 112 | O=C(CCc1c[nH]c2ccccc12)N1CCOC2(CCN(Cc3cc(F)cc(CCNC[C@H](O)c4ccc(O)c5[nH]c(=O)sc45)c3)CC2)C1 [Example 128, (R)-7-(2-(3-((4-(3-(1H-indol-3-yl)propanoyl)-1-oxa-4,9-diazaspiro[5.5]undecan-9-yl)methyl)-5-fluorophenethylamino)-1-hydroxyethyl)-4-hydroxybenzo[d]thiazol-2(3H)-one]
4 | 28 | 85 | Cc1ccccc1C(=O)N1CCOC2(CCN(Cc3cc(F)cc(CCNC[C@H](O)c4ccc(O)c5[nH]c(=O)sc45)c3)CC2)C1 [Example 121, (R)-7-(2-(3-fluoro-5-((4-(2-methylbenzoyl)-1-oxa-4,9-diazaspiro[5.5]undecan-9-yl)methyl)phenethylamino)-1-hydroxyethyl)-4-hydroxybenzo[d]thiazol-2(3H)-one]
5 | 76 | 109 | O=C(c1ccc2cc[nH]c2c1)N1CCOC2(CCN(Cc3cc(F)cc(CCNC[C@H](O)c4ccc(O)c5[nH]c(=O)sc45)c3)CC2)C1 [Example 140, (R)-7-(2-(3-((4-(1H-indole-6-carbonyl)-1-oxa-4,9-diazaspiro[5.5]undecan-9-yl)methyl)-5-fluorophenethylamino)-1-hydroxyethyl)-4-hydroxybenzo[d]thiazol-2(3H)-one]
6 | 71 | 98 | Cc1nonc1C(=O)N1CCOC2(CCN(Cc3cc(F)cc(CCNC[C@H](O)c4ccc(O)c5[nH]c(=O)sc45)c3)CC2)C1 [Example 151, (R)-7-(2-(3-fluoro-5-((4-(4-methyl-1,2,5-oxadiazole-3-carbonyl)-1-oxa-4,9-diazaspiro[5.5]undecan-9-yl)methyl)phenethylamino)-1-hydroxyethyl)-4-hydroxybenzo[d]thiazol-2(3H)-one]
7 | 46 | 62 | Cc1cccc(C(=O)N2CCOC3(CCN(CCOc4ccc(CNC[C@H](O)c5ccc(O)c6[nH]c(=O)sc56)cc4)CC3)C2)n1 [Example 237, (R)-4-hydroxy-7-(1-hydroxy-2-(4-(2-(4-(6-methylpicolinoyl)-1-oxa-4,9-diazaspiro[5.5]undecan-9-yl)ethoxy)benzylamino)ethyl) benzo[d]thiazol-2(3H)-one]
8 | 67 | 98 | Cc1ccn(CC(=O)N2CCOC3(CCN(Cc4cc(F)cc(CCNC[C@H](O)c5ccc(O)c6[nH]c(=O)sc56)c4)CC3)C2)n1 [Example 153, (R)-7-(2-(3-fluoro-5-((4-(2-(3-methyl-1H-pyrazol-1-yl)acetyl)-1-oxa-4,9-diazaspiro[5.5]undecan-9-yl)methyl)phenethylamino)-1-hydroxyethyl)-4-hydroxybenzo[d]thiazol-2(3H)-one]

Further lines, the compound ahead of its results:

Row | SMILES | inhibition at 1 µM [1] [%] | activation at 1 µM [2] [%]
9 | O=C(COc1ccccc1)N1CCOC2(CCN(CCCCCCCCCNC[C@H](O)c3ccc(O)c4[nH]c(=O)sc34)CC2)C1 [Example 199, (R)-4-hydroxy-7-(1-hydroxy-2-(9-(4-(2-phenoxyacetyl)-1-oxa-4,9-diazaspiro[5.5]undecan-9-yl)nonylamino)ethyl)benzo[d]thiazol-2(3H)-one] | 91 | 91
10 | Cc1cc(C(=O)N2CCOC3(CCN(CCCCCCCCCNC[C@H](O)c4ccc(O)c5[nH]c(=O)sc45)CC3)C2)sc1C [Example 222, (R)-7-(2-(9-(4-(4,5-dimethylthiophene-2-carbonyl)-1-oxa-4,9-diazaspiro[5.5]undecan-9-yl)nonylamino)-1-hydroxyethyl)-4-hydroxybenzo[d]thiazol-2(3H)-one] | 91 | 87
11 | O=C(c1cc2ccccc2s1)N1CCOC2(CCN(CCOc3ccc(CNC[C@H](O)c4ccc(O)c5[nH]c(=O)sc45)cc3)CC2)C1 [Example 235, (R)-7-(2-(4-(2-(4-(benzo[b]thiophene-2-carbonyl)-1-oxa-4,9-diazaspiro[5.5]undecan-9-yl)ethoxy)benzylamino)-1-hydroxyethyl)-4-hydroxy-benzo[d]thiazol-2(3H)-one] | 29 | 97
12 | O=C(Cc1ccsc1)N1CCOC2(CCN(CCCCCCCCCNC[C@H](O)c3ccc(O)c4[nH]c(=O)sc34)CC2)C1 [Example 192, (R)-4-hydroxy-7-(1-hydroxy-2-(9-(4-(2-(thiophen-3-yl)acetyl)-1-oxa-4,9-diazaspiro[5.5]undecan-9-yl)nonylamino)ethyl)benzo[d]thiazol-2(3H)-one] | 96 | 88
13 | Cc1nc(C(=O)N2CCOC3(CCN(CCOc4ccc(CNC[C@H](O)c5ccc(O)c6[nH]c(=O)sc56)cc4)CC3)C2)c(C)s1 [Example 242, (R)-7-(2-(4-(2-(4-(2,5-dimethylthiazole-4-carbonyl)-1-oxa-4,9-diazaspiro[5.5]undecan-9-yl)ethoxy)benzylamino)-1-hydroxyethyl)-4-hydroxy-benzo[d]thiazol-2(3H)-one] | 83 | 43
14 | O=C(c1ccccc1)N1CCOC2(CCN(CCOc3ccc(CNC[C@H](O)c4ccc(O)c5[nH]c(=O)sc45)cc3)CC2)C1 [Example 223, (R)-7-(2-(4-(2-(4-benzoyl-1-oxa-4,9-diazaspiro[5.5]undecan-9-yl)ethoxy)benzylamino)-1-hydroxyethyl)-4-hydroxybenzo[d]thiazol-2(3H)-one] | 56 | 87
15 | O=C(CCOc1ccccc1)N1CCOC2(CCN(CCOc3ccc(CNC[C@H](O)c4ccc(O)c5[nH]c(=O)sc45)cc3)CC2)C1 [Example 247, (R)-4-hydroxy-7-(1-hydroxy-2-(4-(2-(4-(3-phenoxypropanoyl)-1-oxa-4,9-diazaspiro[5.5]undecan-9-yl)ethoxy)benzylamino)ethyl) benzo[d]thiazol-2(3H)-one] | 60 | 75
16 | Cc1ccsc1C(=O)N1CCOC2(CCN(CCCCCCCCCNC[C@H](O)c3ccc(O)c4[nH]c(=O)sc34)CC2)C1 [Example 191, (R)-4-hydroxy-7-(1-hydroxy-2-(9-(4-(3-methylthiophene-2-carbonyl)-1-oxa-4,9-diazaspiro[5.5]undecan-9-yl)nonylamino)ethyl)benzo[d]thiazol-2(3H)-one] | 94 | 82

— patent US8148373B2, “Compounds” (AstraZeneca AB, priority 2008, dated 2012)
